In brackets after ≈: the same amount, converted by molar mass.
Tests used:
KB = assay: Cytotoxicity against human KB cells; type: functional, cell-based
A10 = assay: Induction of microtubule loss in rat A10 cells at 1 ng/mL; type: functional

SMILES | IC50 (KB) | Activity (A10)
CC[C@H](C)[C@@H]([C@@H](CC(=O)N1CCC[C@H]1[C@H](OC)[C@@H](C)C(=O)N[C@@H](Cc1ccccc1)c1nccs1)OC)N(C)C(=O)[C@@H](NC(=O)[C@H](C(C)C)N(C)C)C(C)C [DOLASTATIN-10] | < 0.1 ng/mL | –
CC[C@H](C)[C@@H]([C@@H](CC(=O)N1CCC[C@H]1[C@H](OC)[C@@H](C)C(=O)N[C@@H](Cc1ccccc1)c1nccs1)OC)N(C)C(=O)[C@@H](NC(=O)[C@H]([C@@H](C)CC)N(C)C)C(C)C [SYMPLOSTATIN 1] | 0.3 ng/mL (≈ 0.375 nM) | 80%
